Data published in patent US20160324992A1, “IDENTIFICATION AND TREATMENT OF VULNERABLE PLAQUES” (OTTAWA HEART INSTITUTE RESEARCH CORPORATION, priority 2015, published 2016).

How the values were obtained:
[1] = tested on: MLKL; settings: BMDMs, pre-treatment with 50 μM DPI
Method: (§1) RNA isolation and quantitative real-time PCR. BMDMs were treated with control media with or without oxLDL or oxLDL+zVAD.fmk for the indicated time points with or without 1 h pre-treatment with 50 μM DPI. Alternatively, BMDMs were polarized to M0, M1 or M2 prior to RNA isolation, as described above. Total RNA was isolated using TRIzol reagent (Invitrogen) as per manufacturer's instructions and cDNA was synthesized using iScript Reverse Transcription kit (BioRad™). Quantitative real-time PCR was performed in triplicate using either the Sso Advanced Universal SYBR Green Supermix (Biorad) or Taqman™ Gene Expression Assay and mRNA level of target genes was normalized to HPRT or β-actin house keeping genes.
(§2) RNA isolation and quantitative real-time PCR. BMDMs were treated with control media with or without oxLDL or oxLDL+zVAD.fmk for the indicated time points with or without 1 h pre-treatment with 50 uM DPI. Alternatively, BMDMs were polarized to M0, M1 or M2 prior to RNA isolation, as described above. […] Quantitative real-time PCR was performed in triplicate using either the Sso Advanced Universal SYBR Green Supermix (Biorad) or Taqman® Gene Expression Assay and mRNA level of target genes was normalized to HPRT or β-actin house keeping genes.

[2] = tested on: RIP3; settings: BMDMs, pre-treatment with 50 μM DPI
Method: as §1, §2

[3] = tested on: human MLKL promoter; settings: RAW macrophages, 50 uM DPI pre-treatment, oxLDL 6 or 24 h
Method: (§3) Promoter Luciferase Assay. Luciferase reporter constructs containing the human MLKL and RIP3 promoters were purchased from SwitchGear Genomics (Carlsbad, CA). RAW264.7 (ATCC) macrophages were plated in 24-well plates in 10% FBS DMEM and transfected using Lipofectamine 2000 (Life Technologies) with MLKL-promoter or RIP3-promoter plasmids (renilla-based luciferase reporter) together with pGL3 basic (firefly-based reporter, Promega) to normalize for transfection efficiency. Twenty-four hours after transfection, cells were treated with or without 100 μg/ml oxLDL as above, for an additional 24 hours. Cells were harvested in lx passive lysis buffer and luciferase measured using the Dual Luciferase Assay (Promega) according to manufacturer's instructions. All experiments were performed in quadruplicate technical replicates at least 3 times.
(§4) Promoter Luciferase Assay. Luciferase reporter constructs containing the human MLKL and RIP3 promoters were purchased from SwitchGear Genomics (Carlsbad, CA). […] Cells were harvested in 1× passive lysis buffer and luciferase measured using the Dual Luciferase Assay (Promega) according to manufacturer's instructions. […]

[4] = tested on: human RIP3 promoter; settings: RAW macrophages, 50 uM DPI pre-treatment, oxLDL 6 or 24 h
Method: as §3, §4

[5] = tested on: PGAM5; settings: macrophages, DPI
[6] = tested on: reactive oxygen species (ROS); settings: BMDMs pre-incubated with 50 μM DPI, oxLDL or oxLDL+zVAD.fmk 3 h
Method: Measurement of Reactive Oxygen Species (ROS). BMDMs were pre-incubated with DPI for 30 minutes followed by the cell permeant reagent 2′, 7′-dichloroflurescin diacetate (DCFDA) fluorescent dye for 1 h. Cells were then treated with oxLDL or oxLDL+zVAD.fmk and fluorescence was measured at 3 h and 24 h as per manufacturers' instructions (Abcam, ab113851).

c1ccc2c(c1)[I+]c1ccccc1-2 [DPI, diphenyleneiodonium]
induction of MLKL mRNA expression by oxLDL and oxLDL+zVAD.fmk (in words) [1]: inhibited | induction of RIP3 mRNA expression by oxLDL and oxLDL+zVAD.fmk (in words) [2]: inhibited | oxLDL-induced MLKL promoter activity (in words) [3]: significantly blunted | oxLDL-induced RIP3 promoter activity (in words) [4]: significantly blunted | oxLDL-induced PGAM5 expression (in words) [5]: similarly inhibited | oxLDL-induced production of ROS (in words) [6]: inhibited
